The target of test [1] is T1, HePTP (Homo sapiens, UniProt P35236).
T1 sequence (P35236 1-360): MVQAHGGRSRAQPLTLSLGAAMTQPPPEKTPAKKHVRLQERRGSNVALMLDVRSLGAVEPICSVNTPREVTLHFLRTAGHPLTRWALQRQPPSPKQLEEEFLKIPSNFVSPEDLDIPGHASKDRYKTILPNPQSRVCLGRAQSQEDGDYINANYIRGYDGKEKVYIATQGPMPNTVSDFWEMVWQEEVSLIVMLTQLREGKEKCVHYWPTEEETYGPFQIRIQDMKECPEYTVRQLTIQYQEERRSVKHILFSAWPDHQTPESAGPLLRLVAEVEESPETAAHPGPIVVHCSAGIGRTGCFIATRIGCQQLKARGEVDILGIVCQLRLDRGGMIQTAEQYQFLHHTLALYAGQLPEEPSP
Description: HePTP dose-response confirmation screening. The note with it: for IC50: 10 concentrations, 2-fold serial dilution, pNPP substrate; for n / nH (Hill coefficient): Hill coefficient of the dose-response curve. The test is classed as biochemical. The source says: (§1) The following assay can be conducted manually or can be carried out by a robotic station.
(§2) Compounds are then serially diluted in 100% DMSO, and then diluted with water to 10% final DMSO concentration.
(§3) The primary screening actives can then proceed to the dose-response confirmation stage.
* n represents the Hill coefficient. This coefficient is derived from the Hill equation which has the formula: […]
wherein θ is the fraction of ligand binding sites filled, L is the inhibitor concentration, Ka is the inhibitor concentration producing half occupation of the ligand binding sites, and n is the Hill coefficient.

Test [2] deals with T1, HePTP. Description: HePTP HTS primary screen (colorimetric pNPP / Biomol Green). The test is classed as biochemical. The following applies: 20 μM compound; read-out: % Inhib. at 20 μM.
Excerpt: as §1
For this assay, HePTP catalyzes the following reaction:
wherein p-nitrophenyl phosphate serves as a substrate and is cleaved to form p-nitrophenol and phosphate. The liberated phosphate complexes with the Biomol Green™ reagent to provide a quantitative colorimetric value for the amount of substrate cleaved.
as §2, §3

As usually defined, the IC50 is the concentration that inhibits the measured activity by half. Lower therefore signals higher potency. Turning to `Cc1ccc(-c2nn3c(C)nnc3s2)cc1NC(=O)c1ccc(-c2ccc(Cl)cc2Cl)o1` [5-(2,4-Dichlorophenyl)-N-[2-methyl-5-(2-methyl-6-thia-1,3,4,8-tetrazabicyclo[3.3.0]octa-2,4,7-trien-7-yl)phenyl]furan-2-carboxamide], in test [1], the IC50 was determined as 2120 nM and the “n / nH (Hill coefficient)” value came out at 1.3. Moreover, in test [2], the inhibition at 20 µM stood at 92.4%.
With `Cc1nnc2sc(-c3ccc(NC(=O)c4ccc(-c5ccc(Cl)cc5Cl)o4)cc3)nn12` [5-(2,4-Dichlorophenyl)-N-[4-(2-methyl-6-thia-1,3,4,8-tetrazabicyclo[3.3.0]octa-2,4,7-trien-7-yl)phenyl]furan-2-carboxamide], in test [1], the IC50 stood at 1500 nM and the “n / nH (Hill coefficient)” value was determined as 1.94. Moreover, the inhibition at 20 µM in test [2] stood at 102%.
For `O=C1CCCC2=C1C(c1ccco1)Nc1ccc3ccccc3c12` (stereo not drawn) [5-(Furan-2-yl)-2,3,5,6-tetrahydrobenzo[a]phenantridin-4(1H)-one], in that order: 5950 nM, 2.08 and 59.4%.
Taken in the same sequence, the figures for `COc1ccc(Br)cc1C(=O)Nc1cccc(-c2nnc(-c3ccco3)o2)c1` [5-Bromo-N-[3-[5-(2-furyl)-1,3,4-oxadiazol-2-yl]phenyl]-2-methoxy-benzamide] were 4900 nM, 1.47 and 102%.
For `Cc1ccc2c(c1C)NC(C(=O)O)C1CC=CC21` (stereo not drawn) [6,7-dimethyl-3a,4,5,9b-tetrahydro-3H-cyclopenta[c]quinoline-4-carboxylic acid], in that order: 2120 nM, 2.01 and 102%.
Take `O=C(O)c1c[nH]c2ccc(S(=O)(=O)N3CCN(c4ccc(F)cc4)CC3)cc2c1=O` [6-[4-(4-Fluorophenyl)piperazin-1-yl]sulfonyl-4-oxo-1H-quinoline-3-carboxylic acid]: in test [1], the IC50 came out at 4660 nM and the “n / nH (Hill coefficient)” value is recorded as 2.66. Also, in test [2], the inhibition at 20 µM came to 103%.
Turning to `O=C(O)C1Nc2c(O)cccc2C2C=CCC12` (stereo not drawn) [6-hydroxy-3a,4,5,9b-tetrahydro-3H-cyclopenta[c]quinoline-4-carboxylic acid], in test [1], the concentration for half-maximal inhibition (IC50) is 200 nM and the “n / nH (Hill coefficient)” value was found to be 2.11. Further, in test [2], the inhibition at 20 µM was found to be 103%.
As to `COc1cccc2c1NC(C(=O)O)C1CC=CC21` (stereo not drawn) [6-methoxy-3a,4,5,9b-tetrahydro-3H-cyclopenta[c]quinoline-4-carboxylic acid], in test [1], inhibition was half-maximal at 1280 nM (IC50) and the “n / nH (Hill coefficient)” value turned out to be 1.54. In test [2], the inhibition at 20 µM came out at 103%.
On to `CCOC(=O)c1ccc2c(c1)C1C=CCC1C(C(=O)O)N2` (stereo not drawn) [8-(ethoxycarbonyl)-3a,4,5,9b-tetrahydro-3H-cyclopenta[c]quinoline-4-carboxylic acid], for which, in test [1], the concentration for half-maximal inhibition (IC50) is 280 nM and the “n / nH (Hill coefficient)” value was 2.97. The inhibition at 20 µM in test [2] was determined as 103%.
Consider `O=C(Oc1ccccc1)c1ccc2c(c1)C1C=CCC1C(C(=O)O)N2` (stereo not drawn) [8-(phenoxycarbonyl)-3a,4,5,9b-tetrahydro-3H-cyclopenta[c]quinoline-4-carboxylic acid], for which, in test [1], the IC50 worked out at 840 nM and the “n / nH (Hill coefficient)” value is listed as 3.34. The inhibition at 20 µM in test [2] stood at 96.4%.
Turning to `Cc1ccc2c(c1)C1C=CCC1C(C(=O)O)N2` (stereo not drawn) [8-methyl-3a,4,5,9b-tetrahydro-3H-cyclopenta[c]quinoline-4-carboxylic acid], in test [1], half-maximal inhibition (IC50) required 410 nM and the “n / nH (Hill coefficient)” value was 2.41. Besides, the inhibition at 20 µM in test [2] worked out at 102%.
As to `COc1ccc(OC)c(N2C(=O)[C@H]3C(c4ccccc4Cl)=NO[C@@H]3C2=O)c1` [(1S,5S)-2-(2-chlorophenyl)-7-(2,5-dimethoxyphenyl)-4-oxa-3,7-diazabicyclo[3.3.0]oct-2-ene-6,8-dione], in test [1], half-maximal inhibition (IC50) was put at 8250 nM and the “n / nH (Hill coefficient)” value is 2.27. Further, the inhibition at 20 µM in test [2] came out at 85.1%.
As to `C/C(N)=C(\C#N)C(=O)CSc1nnc(Nc2c(C)cccc2C)s1` [(Z)-3-Amino-2-[2-[[5-[(2,6-dimethylphenyl)amino]-1,3,4-thiadiazol-2-yl]sulfanyl]acetyl]but-2-enenitrile], in test [1], the IC50 amounted to 30200 nM and the “n / nH (Hill coefficient)” value was 2.66. Moreover, the inhibition at 20 µM in test [2] was 77.9%.
For `CCCCC[C@H](O)/C=C/[C@H]1C=CC(=O)[C@@H]1C/C=C\CCCC(=O)O` [(Z)-7-[(1R,2S)-2-[(E,3S)-3-Hydroxyoct-1-enyl]-5-oxo-1-cyclopent-3-enyl]hept-5-enoic acid], in test [1], the IC50 is 13700 nM and the “n / nH (Hill coefficient)” value worked out at 2.49. Also, the inhibition at 20 µM in test [2] came to 57.3%.
Regarding `CCOC(=O)C1CCN(C(=O)Nc2ccc3nc(-c4ccco4)c(-c4ccco4)nc3c2)CC1` [Ethyl 1-[[2,3-bis(2-furyl)quinoxalin-6-yl]carbamoyl]piperidine-4-carboxylate], in test [1], the IC50 was determined as 1120 nM and the “n / nH (Hill coefficient)” value was 1.95. Besides, in test [2], the inhibition at 20 µM was found to be 103%.
Take `CCOC(=O)C(C)Sc1nc2c(c(=O)[nH]c(=O)n2C)n1C/C=C(/C)Cl` (stereo not drawn) [Ethyl 2-[7-[(Z)-3-Chlorobut-2-enyl]-3-methyl-2,6-dioxo-purin-8-yl]sulfanylpropanoate]: in test [1], the IC50 came out at 8330 nM and the “n / nH (Hill coefficient)” value was 1.44. For the same compound, in test [2], the inhibition at 20 µM is 55.4%.
For the compound `COC(=O)c1ccccc1NC(=O)c1noc2ccccc12` [Methyl 2-(4-oxa-3-azabicyclo[3.3.0]octa-2,9-diene-2-carbonylamino)benzoate], in test [1], the IC50 stood at 2330 nM and the “n / nH (Hill coefficient)” value came to 1.45. Also, the inhibition at 20 µM in test [2] amounted to 81.2%.
With `Cc1cc(NC(=O)Cc2cccs2)no1` [N-(5-methyl-1,2-oxazol-3-yl)-2-thiophen-2-ylacetamide], in test [1], inhibition was half-maximal at 700 nM (IC50) and the “n / nH (Hill coefficient)” value amounted to 2.49. Moreover, the inhibition at 20 µM in test [2] worked out at 99.7%.
For `O=C(NCc1ccco1)c1c2c(nc3ccccc13)CCC2` [N-(Furan-2-ylmethyl)-2,3-dihydro-1h-cyclopenta[b]quinoline-9-carboxamide;], in that order: 4630 nM, 1.52 and 62%.
`Cn1cnnc1SCC(=O)Nc1sc2c(c1C(=O)ON)CCC2` [N-[3-(aminooxycarbonyl)-5,6-dihydro-4H-cyclopenta[b]thiophen-2-yl]-2-(4-methyl-4H-1,2,4-triazol-3-ylthio)acetamide]: in test [1], half-maximal inhibition (IC50) required 2430 nM and the “n / nH (Hill coefficient)” value is listed as 2.33. In addition, in test [2], the inhibition at 20 µM came to 90.2%.
Take `CCc1ccc(OCC(=O)NC2=CC(=O)/C(=C3/Nc4ccccc4O3)C=C2)cc1` [N-[(4Z)-4-(3H-Benzooxazol-2-ylidene)-3-oxo-1-cyclohexa-1,5-dienyl]-2-(4-ethylphenoxy)acetamide]: in test [1], half-maximal inhibition (IC50) was put at 5280 nM and the “n / nH (Hill coefficient)” value was determined as 0.29. Moreover, in test [2], the inhibition at 20 µM stood at 59%.
For `COc1ccc(Cc2nnc(NC(=O)Cc3cccs3)s2)cc1` [N-{5-[(4-methoxyphenyl)methyl]-1,3,4-thiadiazol-2-yl}-2-thiophen-2-ylacetamide], in that order: 4020 nM, 2.33 and 103%.
Regarding `CC(=O)OCC1=C(C(=O)[O-])N2C(=O)[C@H](NC(=O)Cc3cccs3)[C@H]2SC1.[Na+]` [Sodium (6R,7S)-3-(acetyloxymethyl)-8-oxo-7-[(2-thiophen-2-ylacetyl)amino]-5-thia-1-azabicyclo[4.2.0]oct-2-ene-2-carboxylate], in test [1], the IC50 came out at 920 nM and the “n / nH (Hill coefficient)” value amounted to 1.12. Also, in test [2], the inhibition at 20 µM was 96.2%.
For `Cn1nnnc1SCC1=C(C(=O)[O-])N2C(=O)[C@H](NC(=O)[C@H](O)c3ccccc3)[C@H]2SC1.[Na+]` [Sodium (6R,7S)-7-[[(2R)-2-hydroxy-2-phenyl-acetyl]amino]-3-[(1-methyltetrazol-5-yl)sulfanylmethyl]-8-oxo-5-thia-1-azabicyclo[4.2.0]oct-2-ene-2-carboxylate], in test [1], the IC50 was found to be 100 nM and the “n / nH (Hill coefficient)” value came out at 0.6. In test [2], the inhibition at 20 µM is 98%.
On to `CC(C)Cn1c(N)c(C(=O)COC(=O)c2cc(-c3ccco3)nc3ccccc23)c(=O)n(C)c1=O` [[2-[4-Amino-1-methyl-3-(2-methylpropyl)-2,6-dioxo-pyrimidin-5-yl]-2-oxo-ethyl] 2-(2-furyl)quinoline-4-carboxylate], for which, in test [1], 5270 nM corresponded to half-maximal inhibition (IC50) and the “n / nH (Hill coefficient)” value is 2.48. Further, in test [2], the inhibition at 20 µM came to 89.7%.
For `COc1ccc(C(=O)c2no[n+]([O-])c2C(=O)c2ccc(OC)cc2)cc1` [[4-(4-Methoxybenzoyl)-2-oxido-1-oxa-5-aza-2-azoniacyclopenta-2,4-dien-3-yl]-(4-methoxyphenyl)methanone], in that order: 11300 nM, 0.45 and 86.3%.

Source of the values: patent publication US20120095032A1, “METHODS FOR TREATING LEUKEMIA AND MYELODYSPLASTIC SYNDROME, AND METHODS FOR IDENTIFYING AGENTS FOR TREATING SAME” (Sanford-Burnham Medical Research Institute, priority 2007, published 2012).
